Consider 1 compound from patent US20230117680A1, “CYCLOPHILIN D INHIBITORS AND USES THEREOF” (The Broad Institute, Inc., priority 2019, published 2023).

Each structure is given as a SMILES string.

The assay deals with T1, NKTR (Homo sapiens, UniProt P30414).
T1 sequence (P30414 1-1462): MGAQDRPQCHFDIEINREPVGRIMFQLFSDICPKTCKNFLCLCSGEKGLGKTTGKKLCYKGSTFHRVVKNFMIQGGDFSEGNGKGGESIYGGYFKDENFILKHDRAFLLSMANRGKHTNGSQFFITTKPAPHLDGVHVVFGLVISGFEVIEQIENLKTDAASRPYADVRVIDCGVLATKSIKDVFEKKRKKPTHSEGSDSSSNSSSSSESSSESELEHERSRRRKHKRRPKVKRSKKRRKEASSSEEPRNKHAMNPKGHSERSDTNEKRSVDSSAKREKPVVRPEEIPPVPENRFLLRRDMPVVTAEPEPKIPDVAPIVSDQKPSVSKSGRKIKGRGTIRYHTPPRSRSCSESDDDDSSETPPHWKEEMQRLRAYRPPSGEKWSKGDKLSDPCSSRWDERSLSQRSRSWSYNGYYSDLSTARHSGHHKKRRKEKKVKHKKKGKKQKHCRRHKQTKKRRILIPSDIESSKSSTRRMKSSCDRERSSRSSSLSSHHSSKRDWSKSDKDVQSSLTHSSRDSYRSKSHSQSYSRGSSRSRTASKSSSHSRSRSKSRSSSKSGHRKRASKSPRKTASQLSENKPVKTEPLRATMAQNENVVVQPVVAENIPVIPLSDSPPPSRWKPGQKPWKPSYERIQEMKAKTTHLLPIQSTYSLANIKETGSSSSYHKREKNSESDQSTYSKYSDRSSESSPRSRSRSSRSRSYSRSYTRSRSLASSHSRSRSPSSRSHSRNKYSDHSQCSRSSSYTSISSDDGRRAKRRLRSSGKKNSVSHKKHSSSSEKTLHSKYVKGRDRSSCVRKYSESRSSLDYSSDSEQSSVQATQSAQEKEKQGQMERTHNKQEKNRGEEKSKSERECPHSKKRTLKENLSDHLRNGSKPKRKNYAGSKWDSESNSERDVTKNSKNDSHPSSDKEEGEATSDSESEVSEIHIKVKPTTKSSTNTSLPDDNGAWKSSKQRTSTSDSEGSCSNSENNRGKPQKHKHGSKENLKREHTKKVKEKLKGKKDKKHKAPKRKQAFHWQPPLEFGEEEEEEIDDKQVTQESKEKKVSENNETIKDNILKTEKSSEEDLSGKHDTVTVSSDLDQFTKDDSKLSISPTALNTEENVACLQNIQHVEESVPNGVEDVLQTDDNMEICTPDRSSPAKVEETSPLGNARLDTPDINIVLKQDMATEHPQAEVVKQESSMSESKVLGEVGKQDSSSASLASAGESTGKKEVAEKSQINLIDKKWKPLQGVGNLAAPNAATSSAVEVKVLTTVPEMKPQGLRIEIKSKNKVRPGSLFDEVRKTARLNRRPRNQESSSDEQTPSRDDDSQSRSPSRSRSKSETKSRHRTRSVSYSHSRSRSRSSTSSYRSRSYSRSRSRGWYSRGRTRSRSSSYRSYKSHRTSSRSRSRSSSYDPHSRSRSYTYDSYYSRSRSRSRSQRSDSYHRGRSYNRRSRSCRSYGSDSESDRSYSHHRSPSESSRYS
As to the kind of experiment: chymotrypsin coupled PPIase assay, NKTR inhibition. Type of assay: biochemical. Particulars: result in words. How it is done:
Following the synthesis of the indicated library members, in vitro inhibition (IC50) assays of these hits were conducted to obtain IC50 inhibitory data. For the IC50 assays, a chymotrypsin coupled PPIase assay using Suc-AAPF-AMC as the peptide substrate was used, whereby isomerization of a peptide substrate Suc-AAPF-AMC from the cis to trans conformation allowed for proteolysis via excess a-chymotrypsin, releasing the C-terminal coumarin fluorophore. […] Other non-inhibitor library members were also checked for binding via SPR, but produced the same profile as the prolyl isomerase assay.
Subsequently, to determine if the compounds could both access the S2 pocket and display CypD specificity, JOMBtrans and compound 49 were screened against the 10 other cyclophilins with reported prolyl isomerase activity. […] Co-crystal structures of JOMBtrans and 49 were solved with CypD. […] Three further H-bonds with the macrocycle's backbone and CypD were observed along with a cation-n interaction. […] The benzyl group on the piperidine ring altered the conformation of the macrocycle to open up two new hydrogen bonding interactions with CypD. […] This improvement in specificity compared to JOMBtrans signified that more CypD specific compounds can be garnered by derivatization into the S2 pocket.

Take `NCCOCCNC(=O)[C@@H]1CCNC(=O)/C=C/C(=O)N2CCC[C@H](C2)C(=O)N[C@@H](Cc2ccc(C(=O)c3ccccc3)cc2)C(=O)NCc2ccccc2CC(=O)N1` [compound 27]: the “inhibition of NKTR” value is reported as “Almost complete ablation of inhibition profiles”.
